# Calls of active or inactive are those of the source. How the calls were made is not given here.
# Test system: CCRIS mutagenicity, Ames/micronucleus/aberration tests
# Experiment: CCRIS mutagenicity studies
# [1] = Test System: AMES SALMONELLA TYPHIMURIUM, Strain/Indicator: TA98, Metabolic Activation: NONE, Method: STANDARD PLATE
# [2] = Test System: AMES SALMONELLA TYPHIMURIUM, Strain/Indicator: TA100, Metabolic Activation: NONE, Method: STANDARD PLATE
# [3] = Test System: AMES SALMONELLA TYPHIMURIUM, Strain/Indicator: TA1537, Metabolic Activation: NONE, Method: STANDARD PLATE
# [4] = Test System: AMES SALMONELLA TYPHIMURIUM, Strain/Indicator: TA1538, Metabolic Activation: NONE, Method: STANDARD PLATE
# [5] = Test System: MOUSE LYMPHOMA, Strain/Indicator: L5178Y (TK+/TK-), Metabolic Activation: NONE, Method: SUSPENSION/PLATE
# [6] = Test System: MOUSE LYMPHOMA, Strain/Indicator: L5178Y (TK+/TK-), Metabolic Activation: RAT, LIVER, S-9, AROCLOR 1254, Method: SUSPENSION/PLATE
# [7] = Test System: AMES SALMONELLA TYPHIMURIUM, Strain/Indicator: TA98, Metabolic Activation: RAT, LIVER, S-9, AROCLOR 1254, Method: STANDARD PLATE
# [8] = Test System: AMES SALMONELLA TYPHIMURIUM, Strain/Indicator: TA100, Metabolic Activation: RAT, LIVER, S-9, AROCLOR 1254, Method: STANDARD PLATE
# [9] = Test System: AMES SALMONELLA TYPHIMURIUM, Strain/Indicator: TA1535, Metabolic Activation: NONE, Method: STANDARD PLATE
# [10] = Test System: AMES SALMONELLA TYPHIMURIUM, Strain/Indicator: TA1535, Metabolic Activation: NONE
compound,measurement,setting,value
CCC1CCC(CCC(=O)[O-])C1.CCC1CCC(CCC(=O)[O-])C1.[Co+2] (configuration not stated),mutagenic call,"Test System: AMES SALMONELLA TYPHIMURIUM, Strain/Indicator: TA98, Metabolic Activation: HAMSTER, LIVER, S-9, AROCLOR 1254 (10%), Method: STANDARD PLATE",inactive; negative
same,mutagenic call,[1],inactive; negative
same,mutagenic call,"Test System: AMES SALMONELLA TYPHIMURIUM, Strain/Indicator: TA98, Metabolic Activation: RAT, LIVER, S-9, AROCLOR 1254 (10%), Method: STANDARD PLATE",active; positive
same,mutagenic call,"Test System: AMES SALMONELLA TYPHIMURIUM, Strain/Indicator: TA100, Metabolic Activation: HAMSTER, LIVER, S-9, AROCLOR 1254 (10%), Method: STANDARD PLATE",inactive; negative
same,mutagenic call,[2],inactive; negative
same,mutagenic call,"Test System: AMES SALMONELLA TYPHIMURIUM, Strain/Indicator: TA100, Metabolic Activation: RAT, LIVER, S-9, AROCLOR 1254 (10%), Method: STANDARD PLATE",inactive; negative
same,mutagenic call,"Test System: AMES SALMONELLA TYPHIMURIUM, Strain/Indicator: TA1537, Metabolic Activation: HAMSTER, LIVER, S-9, AROCLOR 1254 (10%), Method: STANDARD PLATE",inactive; negative
same,mutagenic call,[3],inactive; negative
same,mutagenic call,"Test System: AMES SALMONELLA TYPHIMURIUM, Strain/Indicator: TA1537, Metabolic Activation: RAT, LIVER, S-9, AROCLOR 1254 (10%), Method: STANDARD PLATE",inactive; negative
same,mutagenic call,"Test System: AMES SALMONELLA TYPHIMURIUM, Strain/Indicator: TA1538, Metabolic Activation: HAMSTER, LIVER, S-9, AROCLOR 1254 (10%), Method: STANDARD PLATE",inactive; negative
same,mutagenic call,[4],inactive; negative
same,mutagenic call,"Test System: AMES SALMONELLA TYPHIMURIUM, Strain/Indicator: TA1538, Metabolic Activation: RAT, LIVER, S-9, AROCLOR 1254 (10%), Method: STANDARD PLATE",active; positive
same,mutagenic call,[5],inactive; negative. reevaluation of results: negative
same,mutagenic call,[6],inactive; negative. reevaluation of results: equivocal
O=C(O)c1cc(O)c2c(c1)C(=O)c1cccc(O)c1C2=O,mutagenic call,"Test System: AMES SALMONELLA TYPHIMURIUM, Strain/Indicator: TA97A, Metabolic Activation: NONE, Method: STANDARD PLATE",inactive; negative
same,mutagenic call,"Test System: AMES SALMONELLA TYPHIMURIUM, Strain/Indicator: TA97A, Metabolic Activation: RAT, LIVER, S-9, AROCLOR 1254, Method: STANDARD PLATE",inactive; negative
same,mutagenic call,[1],inactive; negative
same,mutagenic call,[7],inactive; negative
same,mutagenic call,[2],inactive; negative
same,mutagenic call,[8],inactive; negative
same,mutagenic call,"Test System: AMES SALMONELLA TYPHIMURIUM, Strain/Indicator: TA102, Metabolic Activation: NONE, Method: STANDARD PLATE",inactive; negative
same,mutagenic call,"Test System: AMES SALMONELLA TYPHIMURIUM, Strain/Indicator: TA102, Metabolic Activation: RAT, LIVER, S-9, AROCLOR 1254, Method: STANDARD PLATE",inactive; negative
same,mutagenic call,[9],inactive; negative
same,mutagenic call,"Test System: AMES SALMONELLA TYPHIMURIUM, Strain/Indicator: TA1535, Metabolic Activation: RAT, LIVER, S-9, AROCLOR 1254, Method: STANDARD PLATE",inactive; negative
same,mutagenic call,[3],inactive; negative
same,mutagenic call,"Test System: AMES SALMONELLA TYPHIMURIUM, Strain/Indicator: TA1537, Metabolic Activation: RAT, LIVER, S-9, AROCLOR 1254, Method: STANDARD PLATE",inactive; negative
same,mutagenic call,[4],inactive; negative
same,mutagenic call,"Test System: AMES SALMONELLA TYPHIMURIUM, Strain/Indicator: TA1538, Metabolic Activation: RAT, LIVER, S-9, AROCLOR 1254, Method: STANDARD PLATE",inactive; negative
same,mutagenic call,"Test System: Ames Salmonella typhimurium, Strain/Indicator: TA102, Metabolic Activation: None, Method: Preincubation",active; positive
same,mutagenic call,"Test System: Ames Salmonella typhimurium, Strain/Indicator: TA102, Metabolic Activation: Rat, Liver, S-9, Aroclor 1254 in 0.154 M KCl, Method: Preincubation",active; positive
same,mutagenic call,[5],inactive; negative
same,mutagenic call,[6],inactive; negative
Clc1cc2c3ccccc3ccc2c2ccccc12,mutagenic call,[7],inactive; negative
same,mutagenic call,[8],active; positive
O=C(NC(Cc1cc(=O)[nH]c2ccccc12)C(=O)O)c1ccc(Cl)cc1 (configuration not stated),mutagenic call,[1],inactive; negative
same,mutagenic call,"Test System: AMES SALMONELLA TYPHIMURIUM, Strain/Indicator: TA98, Metabolic Activation: S-9, Method: STANDARD PLATE",inactive; negative
same,mutagenic call,[2],inactive; negative
same,mutagenic call,"Test System: AMES SALMONELLA TYPHIMURIUM, Strain/Indicator: TA100, Metabolic Activation: S-9, Method: STANDARD PLATE",inactive; negative
same,mutagenic call,[9],inactive; negative
same,mutagenic call,"Test System: AMES SALMONELLA TYPHIMURIUM, Strain/Indicator: TA1535, Metabolic Activation: S-9, Method: STANDARD PLATE",inactive; negative
same,mutagenic call,[3],inactive; negative
same,mutagenic call,"Test System: AMES SALMONELLA TYPHIMURIUM, Strain/Indicator: TA1537, Metabolic Activation: S-9, Method: STANDARD PLATE",inactive; negative
same,mutagenic call,[4],inactive; negative
same,mutagenic call,"Test System: AMES SALMONELLA TYPHIMURIUM, Strain/Indicator: TA1538, Metabolic Activation: S-9, Method: STANDARD PLATE",inactive; negative
same,mutagenic call,"Test System: E.COLI, Strain/Indicator: WP2 UVRA, Metabolic Activation: NONE, Method: STANDARD PLATE",inactive; negative
same,mutagenic call,"Test System: E.COLI, Strain/Indicator: WP2 UVRA, Metabolic Activation: S-9, Method: STANDARD PLATE",inactive; negative
c1ccc2c(c1)c1cccc3c4ccccc4c4cccc2c4c13,mutagenic call,"Test System: HUMAN H1A1V2 CELLS, Strain/Indicator: TK LOCUS, Metabolic Activation: NONE, Method: SUSPENSION/PLATE",active; positive
CCN(CC)C(=S)SSC[C@H](NC(=O)CC[C@H](N)C(=O)O)C(=O)NCC(=O)O,mutagenic call,"Test System: AMES SALMONELLA TYPHIMURIUM, Strain/Indicator: TA98, Metabolic Activation: NONE, Method: PREINCUBATION",inactive; negative
same,mutagenic call,"Test System: AMES SALMONELLA TYPHIMURIUM, Strain/Indicator: TA98, Metabolic Activation: RAT, LIVER, S-9, AROCLOR 1254, Method: PREINCUBATION",inactive; negative
same,mutagenic call,"Test System: AMES SALMONELLA TYPHIMURIUM, Strain/Indicator: TA100, Metabolic Activation: NONE, Method: PREINCUBATION",inactive; negative
same,mutagenic call,"Test System: AMES SALMONELLA TYPHIMURIUM, Strain/Indicator: TA100, Metabolic Activation: RAT, LIVER, S-9, AROCLOR 1254, Method: PREINCUBATION",inactive; negative
CC1CCC(NC(=O)N(CCCl)N=O)CC1 (configuration not stated),mutagenic call,"Test System: AMES SALMONELLA TYPHIMURIUM, Strain/Indicator: G46, Metabolic Activation: NONE",active; positive
same,mutagenic call,[2],active; positive
same,mutagenic call,[8],active; positive
same,mutagenic call,[10],active; positive
O=[N+]([O-])c1ccc2c(c1)-c1ccc([N+](=O)[O-])c3cccc-2c13,mutagenic call,"Test System: AMES SALMONELLA TYPHIMURIUM, Strain/Indicator: TA97, Metabolic Activation: NONE",active; positive
same,mutagenic call,"Test System: AMES SALMONELLA TYPHIMURIUM, Strain/Indicator: TA98(1,8-DNP6), Metabolic Activation: NONE",active; positive
same,mutagenic call,"Test System: AMES SALMONELLA TYPHIMURIUM, Strain/Indicator: TA98(NR), Metabolic Activation: NONE",active; positive
same,mutagenic call,"Test System: AMES SALMONELLA TYPHIMURIUM, Strain/Indicator: TA98, Metabolic Activation: NONE",active; positive
same,mutagenic call,"Test System: AMES SALMONELLA TYPHIMURIUM, Strain/Indicator: TA100, Metabolic Activation: NONE",active; positive
same,mutagenic call,[10],inactive; negative
same,mutagenic call,"Test System: AMES SALMONELLA TYPHIMURIUM, Strain/Indicator: TA1537, Metabolic Activation: NONE",active; positive
same,mutagenic call,"Test System: AMES SALMONELLA TYPHIMURIUM, Strain/Indicator: TA1538, Metabolic Activation: NONE",active; positive
same,mutagenic call,"Test System: AMES SALMONELLA TYPHIMURIUM, Strain/Indicator: TA1978, Metabolic Activation: NONE",active; positive
CCN(CC)C(=S)S,mutagenic call,"End Point: IN VITRO CHROMOSOMAL ABERRATIONS, Test System: CHO CELLS, Metabolic Activation: RAT, LIVER, S-9, AROCLOR 1254",inactive; negative
same,mutagenic call,"End Point: IN VITRO CHROMOSOMAL ABERRATIONS, Test System: TK6 HUMAN LYMPHOBLASTS, Metabolic Activation: NONE",active; positive (weak response)
same,mutagenic call,[5],active; positive
